Where “and” joins values, the source holds several entries; their conditions need not be identical. Equal entries are not always repeated. Numbers after ± are expanded uncertainties.
Tests used:
[1] = 101 kPa, Liquid; for viscosity: Concentric cylinders viscometry; for mass density: Vibrating tube method
[2] = refractive index (Na D-line) (dimensionless); details: 101.33 kPa, Liquid, Standard Abbe refractometry
[3] = refractive index (Na D-line) (dimensionless); xn = mol fraction of the nth substance listed; details: 101 kPa, Liquid, Standard Abbe refractometry, x2 = 0
[4] = xn = mol fraction of the nth substance listed; details: 101 kPa, Liquid, x2 = 0; for viscosity: Concentric cylinders viscometry; for mass density: Vibrating tube method

OCCCO [propan-1,3-diol]
Details | mass density, [1] [kg/m3] | refractive index, [2] | viscosity, [1] [mPa·s]
288.15 K | 1055.96 ± 0.27 | 1.44072 ± 0.00037 | 66.71 ± 0.68
293.15 K | 1052.86 ± 0.27 | 1.43932 ± 0.00037 | 52.02 ± 0.49
298.15 K | 1049.75 ± 0.27 | 1.43793 ± 0.00037 | 41.11 ± 0.41
303.15 K | 1046.63 ± 0.27 | 1.43653 ± 0.00037 | 32.89 ± 0.33
308.15 K | 1043.5 ± 0.26 | 1.43512 ± 0.00037 | 26.61 ± 0.26
313.15 K | 1040.35 ± 0.26 | 1.43374 ± 0.00037 | 21.76 ± 0.22
318.15 K | 1037.17 ± 0.26 | 1.43232 ± 0.00037 | 17.97 ± 0.18
323.15 K | 1033.98 ± 0.26 | 1.43087 ± 0.00037 | 14.97 ± 0.15

CC(O)CO (stereo not drawn) [1,2-propanediol]
Details | mass density, [1] [kg/m3] | refractive index, [2] | viscosity, [1] [mPa·s]
288.15 K | 1039.87 ± 0.1 | 1.43437 ± 0.00033 | 82.54 ± 0.87
293.15 K | 1036.25 ± 0.099 | 1.4327 ± 0.00033 | 59.62 ± 0.52
298.15 K | 1032.56 ± 0.097 | 1.43102 ± 0.00033 | 44.03 ± 0.39
303.15 K | 1028.88 ± 0.095 | 1.42934 ± 0.00033 | 33.16 ± 0.3
308.15 K | 1025.14 ± 0.093 | 1.42764 ± 0.00033 | 25.45 ± 0.23
313.15 K | 1021.35 ± 0.092 | 1.42591 ± 0.00033 | 19.85 ± 0.18
318.15 K | 1017.52 ± 0.09 | 1.4242 ± 0.00033 | 15.73 ± 0.14
323.15 K | 1013.66 ± 0.088 | 1.42246 ± 0.00033 | 12.64 ± 0.11

OCCCO [propan-1,3-diol] + CCCCOC(=O)C(C)O
Details | mass density, [4] [kg/m3] | refractive index, [3] | viscosity, [4] [mPa·s]
288.15 K | 1055.96 ± 0.27 | 1.44072 ± 0.00037 | 66.71 ± 0.68
293.15 K | 1052.86 ± 0.27 | 1.43932 ± 0.00037 | 52.02 ± 0.49
298.15 K | 1049.75 ± 0.27 | 1.43793 ± 0.00037 | 41.11 ± 0.41
303.15 K | 1046.63 ± 0.27 | 1.43653 ± 0.00037 | 32.89 ± 0.33
308.15 K | 1043.5 ± 0.26 | 1.43512 ± 0.00037 | 26.61 ± 0.26
313.15 K | 1040.35 ± 0.26 | 1.43374 ± 0.00037 | 21.76 ± 0.22
318.15 K | 1037.17 ± 0.26 | 1.43232 ± 0.00037 | 17.97 ± 0.18
323.15 K | 1033.98 ± 0.26 | 1.43087 ± 0.00037 | 14.97 ± 0.15

CC(O)CO (stereo not drawn) [1,2-propanediol] + CCCCOC(=O)C(C)O
Details | mass density, [4] [kg/m3] | refractive index, [3] | viscosity, [4] [mPa·s]
288.15 K | 1039.87 ± 0.1 | 1.43437 ± 0.00033 | 82.54 ± 0.87
293.15 K | 1036.25 ± 0.099 | 1.4327 ± 0.00033 | 59.62 ± 0.52
298.15 K | 1032.56 ± 0.097 | 1.43102 ± 0.00033 | 44.03 ± 0.39
303.15 K | 1028.88 ± 0.095 | 1.42934 ± 0.00033 | 33.16 ± 0.3
308.15 K | 1025.14 ± 0.093 | 1.42764 ± 0.00033 | 25.45 ± 0.23
313.15 K | 1021.35 ± 0.092 | 1.42591 ± 0.00033 | 19.85 ± 0.18
318.15 K | 1017.52 ± 0.09 | 1.4242 ± 0.00033 | 15.73 ± 0.14
323.15 K | 1013.66 ± 0.088 | 1.42246 ± 0.00033 | 12.64 ± 0.11

CCCCOC(=O)C(C)O (stereo not drawn) [butyl 2-hydroxypropanoate]
Details | mass density, [1] [kg/m3] | refractive index, [2] | viscosity, [1]
288.15 K | 987.269 ± 1.8 | 1.42379 ± 0.00068 | 4.628 ± 0.081 mPa·s
293.15 K | 982.366 ± 1.8 | 1.42152 ± 0.00068 | 3.88 ± 0.068 mPa·s
298.15 K | 977.448 ± 1.8 | 1.41925 ± 0.00068 | 3.307 ± 0.058 mPa·s
303.15 K | 972.515 ± 1.8 | 1.41697 ± 0.00068 | 2.85 ± 0.05 mPa·s and 2.86 ± 0.05 mPa·s
308.15 K | 967.567 ± 1.8 | 1.41469 ± 0.00068 and 1.4147 ± 0.00068 | 2.481 ± 0.043 mPa·s
313.15 K | 962.603 ± 1.8 | 1.4124 ± 0.00068 and 1.41241 ± 0.00068 | 2.181 ± 0.038 mPa·s
318.15 K | 957.624 ± 1.7 | 1.41006 ± 0.00068 and 1.41005 ± 0.00068 | 1.935 ± 0.034 mPa·s
323.15 K | 952.631 ± 1.7 | 1.40778 ± 0.00068 | 1.728 ± 0.031 mPa·s

CCCO [propan-1-ol]
Details | mass density, [1] [kg/m3] | refractive index, [2] | viscosity, [1] [mPa·s]
288.15 K | 807.752 ± 0.14 | 1.38751 ± 0.00033 | 2.514 ± 0.024
293.15 K | 803.767 ± 0.14 | 1.38543 ± 0.00033 | 2.208 ± 0.021
298.15 K | 799.755 ± 0.14 | 1.3834 ± 0.00033 | 1.95 ± 0.019
303.15 K | 795.717 ± 0.14 | 1.38137 ± 0.00033 | 1.727 ± 0.017
308.15 K | 791.638 ± 0.14 | 1.37918 ± 0.00033 | 1.542 ± 0.015
313.15 K | 787.521 ± 0.14 | 1.37702 ± 0.00033 | 1.378 ± 0.014
318.15 K | 783.357 ± 0.15 | 1.37482 ± 0.00033 | 1.236 ± 0.013
323.15 K | 779.137 ± 0.15 | 1.37262 ± 0.00033 | 1.124 ± 0.012

CCCO [propan-1-ol] + CCCCOC(=O)C(C)O
Details | mass density, [4] [kg/m3] | refractive index, [3] | viscosity, [4] [mPa·s]
288.15 K | 807.752 ± 0.14 | 1.38751 ± 0.00033 | 2.514 ± 0.024
293.15 K | 803.767 ± 0.14 | 1.38543 ± 0.00033 | 2.208 ± 0.021
298.15 K | 799.755 ± 0.14 | 1.3834 ± 0.00033 | 1.95 ± 0.019
303.15 K | 795.717 ± 0.14 | 1.38137 ± 0.00033 | 1.727 ± 0.017
308.15 K | 791.638 ± 0.14 | 1.37918 ± 0.00033 | 1.542 ± 0.015
313.15 K | 787.521 ± 0.14 | 1.37702 ± 0.00033 | 1.378 ± 0.014
318.15 K | 783.357 ± 0.15 | 1.37482 ± 0.00033 | 1.236 ± 0.013
323.15 K | 779.137 ± 0.15 | 1.37262 ± 0.00033 | 1.124 ± 0.012
